Source: patent publication US20100292257A1, “USES OF 2-[PIPERIDINYL] METHYL-2, 3-DIHYDROIMIDAZO [1,2-C] QUINAZOLIN-5 (6H)-ONE FOR PROVIDING AN ANALGESIC EFFECT, ANTI-ALLERGIC EFFECT AND HISTAMINE H1 RECEPTOR ANTAGONISM EFFECT” (Medical and Pharmaceutical Industry Technology and …, priority 2007, published 2010)
Blank lines part the entries; values can stand above or below the molecule they belong to.

How the values were obtained:
[1] = tested on: CD-1 (Crl.) derived male mice; test: Phenylquinone (PQ)-induced writhing assay; format: in vivo; details: 1 h before phenylquinone 2 mg/kg i.p., writhes 5th-10th min, vehicle 15.1 ± 1.4
Experimental: Vehicle (2% Tween 80, 10 ml/kg), PDC-130 or aspirin was orally administered to a group of eight CD-1 (Crl.) derived male mice weighing 24±2 g. One hour later, phenylquinone (2 mg/kg) was given by intraperitoneal injection. […] of animals was observed and recorded during a period of time from the 5th to 10th minutes after PQ administration, [Reference: Siegmund, E, Cadmus, R. and Lu, G. A method for evaluating both non-narcotic and narcotic analgesics. Proc. Soc. Exp. Biol. Med. 952: 729-731, 1957.]

[2] = tested on: CD-1 (Crl.) derived male mice; test: Acetic acid-induced writhing assay; format: in vivo; details: 1 h before acetic acid 0.5%, 20 ml/kg i.p., writhes 5th-10th min, vehicle 12.4 ± 1.5
Experimental: Vehicle (2% Tween 80, 10 ml/kg), PDC-130 or aspirin (100 mg/kg) was administered orally to groups of eight CD-1 (Crl.) derived male mice, weighing 24±2 g, 1 hour before intraperitoneal injection of acetic acid (0.5%, 20 ml/kg). The number of writhes of animals was observed and recorded during a period of time from the 5th to the 10th minutes period after acetic acid administration. [Reference: Inoue. K., Motonaga, A. and Nishimura, T. Mechanism of antiinflammatory action of etodolac. Arzneim-Forsch./Drug Res. 41: 235-239, 1991.]

Wistar derived male rats = test: Passive cutaneous anaphylaxis; format: in vivo; details: for Total Score: wheal diameter score, group of five rats, vehicle 50
Experimental: A group of five Wistar derived male rats weighing 80±20 g was passively sensitized 16 hours earlier by intradermal injection of reaginic antiovalbumin serum (0.5 ml) on two spots of the dorsal surface. […] Within one hour after administration of the above substances, the animals were challenged intravenously with a mixture of ovalbumin (1 mg) and Evans Blue dye (5 mg) and sacrificed 30 minutes later. The two wheal diameters were measured for each animal and scored as follows: • Score 0: diameter<0.05 cm • Score 1: diameter 0.05-0.20 cm • Score 2: diameter 0.2-0.4 cm • Score 3: diameter 0.4-0.6 cm • Score 4: diameter 0.6-0.8 cm • Score 5: diameter>0.8 cm
Maximum possible score for each animal total 5×2=10. [Reference: Goose, J. and Blair, A. M. J. N. Passive cutaneous anaphylaxis in the rat, induced with two homologous reagin-like antibodies and its specific inhibition with disodium chromoglycate. Immunology 16: 749-760, 1969.]
(Total score of vehicle group−Total score of tested group)/(Total score of vehicle group)×100%

Histamine H1 Receptor = molecular target: T1, Histamine H1 Receptor (Rattus norvegicus, UniProt P31390); test: Histamine H1 antagonism (histamine-induced wheal); format: in vivo, rats; details: for Total Score: 1 h before intradermal histamine, wheal diameter score, group of five rats, vehicle 50; for Inhibition (%): inhibition of histamine-induced blue colored wheal vs vehicle
T1 construct: immediately challenged with two intradermal injection of histamine; from tissue; host or cells: living Wistar derived male rats (skin, intradermal histamine challenge)
Experimental: After one hour, animals were injected with Evans Blue dye (5 mg/0.5 ml/rat) intravenously and immediately challenged with two intradermal injection of histamine (each 30 μg/0.05 ml). The animals were sacrificed 30 minutes later. The two wheal diameters were then measured for each animal and scored as follows: • Score 0: diameter<0.05 cm • Score 1: diameter 0.05-0.20 cm • Score 2: diameter 0.2-0.4 cm • Score 3: diameter 0.4-0.6 cm • Score 4: diameter 0.6-0.8 cm • Score 5: diameter>0.8 cm
Maximum possible score for each animal total 5×2=10.

T1 sequence (P31390 whole entry): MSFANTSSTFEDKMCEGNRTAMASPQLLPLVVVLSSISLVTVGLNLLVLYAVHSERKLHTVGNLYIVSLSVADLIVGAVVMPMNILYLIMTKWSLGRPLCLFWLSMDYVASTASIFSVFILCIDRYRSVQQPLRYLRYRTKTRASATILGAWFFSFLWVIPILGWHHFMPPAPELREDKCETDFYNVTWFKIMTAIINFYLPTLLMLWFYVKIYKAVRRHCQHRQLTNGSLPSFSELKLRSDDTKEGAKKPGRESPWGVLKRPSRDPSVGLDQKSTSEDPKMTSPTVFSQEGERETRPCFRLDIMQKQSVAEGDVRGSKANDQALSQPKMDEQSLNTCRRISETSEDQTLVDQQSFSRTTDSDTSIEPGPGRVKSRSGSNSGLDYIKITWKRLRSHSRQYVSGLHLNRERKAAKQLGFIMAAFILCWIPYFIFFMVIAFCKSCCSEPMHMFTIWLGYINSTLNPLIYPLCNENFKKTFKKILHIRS

SMILES: CC(=O)Oc1ccccc1C(=O)O [Aspirin, aspirin, reference compound]
Number of Writhing ([1]; 100 mg/kg orally): 5.5 ± 1.5 | Number of Writhing ([2]; 100 mg/kg orally): 2.4 ± 1.0

SMILES: CN1CCC(=C2c3ccccc3C=Cc3ccccc32)CC1 [Cyproheptadine, cyproheptadine, reference compound]
Total Score (Wistar derived male rats; 1 mg/kg orally): 14 | inhibition at 1 mg/kg (Wistar derived male rats; Rattus norvegicus, po, 1 mg/kg orally, inhibition of passive cutaneous anaphylaxis blue colored wheal vs vehicle): 72%

Total Score (Histamine H1 Receptor; 3 mg/kg orally): 20 | Inhibition (%) (Histamine H1 Receptor; 3 mg/kg orally): 60% | Total Score (Histamine H1 Receptor; 10 mg/kg orally): 14 | Inhibition (%) (Histamine H1 Receptor; 10 mg/kg orally): 72% | Total Score (Histamine H1 Receptor; 30 mg/kg orally): 10 | Inhibition (%) (Histamine H1 Receptor; 30 mg/kg orally): 80%
SMILES: O=C(c1ccc(F)cc1)C1CCN(CC2CN3C(=O)Nc4ccccc4C3=N2)CC1 (stereo not drawn) [PDC-130, 2-[1-(4-p-fluorobenzoyl)piperidinyl]methyl-2,3-dihydroimidazo[1,2-c]-quinazolin-5(6H)-one]
Number of Writhing ([1]; 0.03 mg/kg orally): 12.1 ± 1.6 | Number of Writhing ([1]; 0.1 mg/kg orally): 6.4 ± 1.6 | Number of Writhing ([1]; 0.3 mg/kg orally): 5.3 ± 1.7 | Number of Writhing ([1]; 1 mg/kg orally): 2.8 ± 1.2 | Number of Writhing ([2]; 0.03 mg/kg orally): 12.1 ± 1.6 | Number of Writhing ([2]; 0.1 mg/kg orally): 5.0 ± 1.0 | Number of Writhing ([2]; 0.3 mg/kg orally): 5.3 ± 1.1 | Number of Writhing ([2]; 1 mg/kg orally): 2.1 ± 1.1 | Inhibition (%) (Wistar derived male rats; 3 mg/kg orally, inhibition of passive cutaneous anaphylaxis blue colored wheal vs vehicle): 68% | Total Score (Wistar derived male rats; 3 mg/kg orally): 16 | Inhibition (%) (Wistar derived male rats; 10 mg/kg orally, inhibition of passive cutaneous anaphylaxis blue colored wheal vs vehicle): 80% | Total Score (Wistar derived male rats; 10 mg/kg orally): 10 | Inhibition (%) (Wistar derived male rats; 30 mg/kg orally, inhibition of passive cutaneous anaphylaxis blue colored wheal vs vehicle): 80% | Total Score (Wistar derived male rats; 30 mg/kg orally): 10
